Assay results published in patent publication US12595269B2, “Morpholine-like monoamine releasers” (Solvonis Therapeutics Ireland Holdings Limited, priority 2022, dated 2026).

Experiments:
Format in all cases: in vitro ADME
[1] = In vitro intrinsic clearance in rat liver microsomes; settings: pH 7.4, read-out: Intrinsic clearance (μL/min/mg protein) rat
Description: (§1) Methods and Procedure: The general procedure involves incubating test compounds with liver microsomes and subsequently detecting the compounds to determine intrinsic clearance. Clearance was estimated from the rate of depletion k (min−1), the volume of the incubation V (mL), and the amount of microsomal proteins in the incubation M (mg). Intrinsic clearance is defined by the following equation: Clint k*V/M.
(§2) Values for CLint are expressed as μL/min/mg protein. Verapamil and dextromethorphan were used as positive controls for CYP3A4 and CYP2D6 isoforms, respectively, to confirm metabolic activity.
(§3) Positive control and compounds for testing were dissolved in an appropriate solvent to obtain a 10 mM stock solution, which was diluted to achieve a final working solution, as detailed in the above table. Stock solutions were usually prepared at 10 mM DMSO, whereas working solutions were made by adding 5 μL 10 mM DMSO+995 μL MeOH. However, this concentration can be varied, e.g., when the test item is not soluble in the selected solvent.
(§4) Prior to experimentation, frozen liver microsomes were thawed in a water bath at 37° C. and kept on ice until use. The microsomes were then diluted with 50 mM potassium phosphate buffer pH 7.4 to a protein concentration of 0.56 mg/mL. To prepare test and control items in final incubation conditions, 5 μL of test compound and positive control working solutions were added to 445 μL of microsomes incubation mixture at 0.56 mg/mL and 50 μL of regenerating system.
(§5) As it relates to the automated incubation procedure for microsomes incubation, the following procedure was followed: • 1. 150 μL of quenching solution (ACN containing an appropriate Internal Standard, i.e. Rolipram and Diclofenac for positive and negative ion mode, respectively) was manually dispensed or dispensed by using the Hamilton system in each well of 96 deep well 1 mL plates. • 2. 800-1000 μL-aliquots of NADPH regenerating system were pre-warmed at 37° C. for 5 minutes. • 3. 5 μL of 50 μM test items and control were added to 445 μL of the 0.56 mg/mL microsomes solution, and the incubation mixture was pre-warmed in a 96 deep well 2 mL plate (incubation plate) at 37° C. for 5 minutes. • 4. […] Metabolic stability was calculated from the ratio of peak area of the remaining test or control item with internal standard versus time. • 9. […] The integrated peak areas of the test and control items at the selected time points were divided by the respective peak areas of the IS, and the percent of parent remaining was calculated by normalizing the peak area ratio of parent to IS at 0 min. Observed rate constant (kobs) for parent degradation was calculated by determining the slope of the line of the graph of the natural log of percentage parent remaining versus time of incubation. […]

[2] = In vitro intrinsic clearance in human liver microsomes; settings: pH 7.4, read-out: Intrinsic clearance (μL/min/mg protein) human
Description: as §1, §2, §3, §4, §5

[3] = Brain tissue binding (BTB) by equilibrium dialysis, rat brain homogenate; settings: male, Sprague Dawley, pH 7.4
Description: Methods and Procedure: This study was performed in agreement with the previously described procedures to assure data integrity and adherence to GLP standards. Plasma protein binding and blood tissue binding of test items (0.5 μM) was determined using biological samples from male Sprague Dawley (SD) rats and humans. […] Dexamethasone was used as a control for lung tissue binding. Various biological samples were spiked with test compounds according to the methods that follow.
Preparation of brain homogenate samples: Test items were dissolved in DMSO (or an appropriate solvent) to give a 10 mM solution. Further dilutions, to obtain […] working solutions (WS), were then prepared using 50% acetonitrile in Milli Q water. These 100×WS were used to spike the brain homogenate to obtain a final concentration of 5 μM. From this initial spiking solution, control samples (n=3) referred to as T=0, were immediately extracted by protein precipitation.
An equilibrium dialysis method was performed to determine protein binding in the various biological samples described herein. Materials were prepared and methods were in accordance with the following procedures.
Membranes were prepared for use in the equilibrium dialysis experiment, by soaking in deionized water for at least 60 minutes. After this period, 20% of pure ethanol was added, and the membranes were left in this solution for at least 20 minutes. The membranes were then rinsed in Milli-Q water prior to use. […]
Dialysis buffer was prepared by dissolving Na2HPO4 8.69 g, KH2PO4 1.90 g, and NaCl 4.11 g in 1 L of MilliQ water, and adjusting the pH to 7.4 with H3PO4. […] In order to control the integrity of the membrane after the dialysis process, the presence of protein was assessed in the buffer compartment. […]
Samples were analyzed in a LC-MS/MS system using an analytical method to monitor the compound to internal standard peak area ratios as representative of the compound concentrations. Alternatively, samples were analyzed by RapidFire. […]

| Compound | microsomal CLint at 0.5 µM [1] [µL/min/mg] | microsomal CLint at 0.5 µM [2] [µL/min/mg] | fraction unbound at 5 h, 5 µM [3] |
| --- | --- | --- | --- |
| Clc1ccc([C@]23CN[C@H](CO2)C3)cc1Cl (single isomer, unassigned) [516A] | 167 | 31 | – |
| Clc1ccc([C@@]23CN[C@@H](CO2)C3)cc1Cl (single isomer, unassigned) [518A] | 268 | 40 | 0.0127 |
| Clc1ccc(C23CNC(CO2)C3)cc1Cl (centres unmarked) [522A, 1-(3,4-dichlorophenyl)-2-oxa-5-azabicyclo[2.2.1]heptane] | 83 | 10 | 0.022 |
| CNC(C)Cc1ccc2c(c1)OCO2 (centres unmarked) [MDMA, reference compound] | 171 | 30 | ~0.4 |
